Experimental data as given in patent publication US10765644B2, “Methods for the treatment of hepatitis C” (priority 2015, dated 2020).
pEC50: −log10 of the molar value.

Columns and labels:
[1] = tested on: cell culture-derived HCV (HCVcc); assay: microbe, parasite or virus in culture; type: cell-based, hepatitis C virus
Experimental: (§1) Huh7.5 cells were grown in Dulbecco's modified essential media (DMEM), 10% fetal bovine serum (FBS), 1% penicillin-streptomycin (pen-strep), 1% Non-essential amino acids (NEAA) in a 5% CO2 incubator at 37° C. Huh7.5 cells were seeded at 1×10^4 cells per well into 96-well plates according to Southern Research Institute standard format. Test articles were serially diluted with DMEM plus 5% FBS. The diluted compound in the amount of 50 μl was mixed with equal volume of cell culture-derived HCV (HCVcc), then applied to appropriate wells in the plate. Human interferon alpha-2b (rIFNα-2b) and/or Sofosbuvir were included as a positive control. After 72 hr incubation at 37° C., the cells were lysed for measurement of luciferase activity using Renilla Luciferase Assay System (Promega) according to manufacturer's instruction. The number of cells in each well were determined by CytoTox-1 reagent (Promega). Test articles were tested at 6 serial dilutions in triplicate to derive, if applicable, EC50 and EC90 (concentration inhibiting HCVcc infectivity by 50% and 90%, respectively), CC50 (concentration decreasing cell viability by 50%) and SI (selectivity index: CC50/EC50) values (Table 1).

HCV GT1B replicon = assay: HCV replicon assay (antiviral, luciferase / qRT-PCR endpoint); type: cell-based, hepatitis C virus
Experimental: Stable HCV replicons of different genotypes may be used for anti-HCV evaluation.
The HCV replicon antiviral evaluation assay examined the effects of compounds at six serial dilutions. Human interferon alpha-2b (rIFNα-2b) and/or Sofosbuvir were included in each run as a positive control compound.
(§2) Briefly, the replicon cells were plated at 5,000 cells/well into 96-well plates that were dedicated for the analysis of cell numbers (cytotoxicity) or antiviral activity. On the following day, samples were diluted with assay media and added to the appropriate wells. Cells were processed 72 hours later when the cells were still sub-confluent. For the luciferase endpoint assay, HCV replicon levels were assessed as replicon-derived Luc activity. The concentration of drug that reduced cell viability was assessed by the fluorometric CytoTox-1 cell proliferation assay (Promega), (expressed as cell numbers). For the qRT-PCR/TaqMan assay, total RNA was extracted from the replicon cells using RNeasy 96 kit (Qiagen) according to the manufacturer's protocol. Real-time RTPCR/TaqMan assays were performed to measure copy numbers of the replicon RNA and cellular ribosomal RNA. Where applicable EC50 (concentration inhibiting HCV replicon by 50%), EC90 (concentration inhibiting HCV replicon by 90%), CC50 (concentration decreasing cell viability by 50%), CC90 (concentration decreasing cell viability by 90%) and SI (selectivity indices: CC50/EC50 and CC90/EC90) values were derived.

[2] = HCV replicon assay, cytotoxicity (CytoTox-1 cell proliferation assay); type: cell-based; details: HCV replicon cells, In vitro HCV replicon assay, post infection, read-out: CC50 (concentration decreasing cell viability by 50%)
Experimental: as §2

in vitro = type: cell-based; details: human
Experimental: as §1

CC[C@H](c1ccc(O)cc1)[C@@H](CC)c1ccc(O)cc1 [Hexestrol, meso 3,4-bis(4-hydroxyphenyl)hexane]
anti-Hepatitis C activity (in words) ([1]; Hepatitis C viral infectivity assay): significant anti-Hepatitis C activity | pEC50 ([1]; Hepatitis C virus, Huh7.5, 72 h, read-out: EC50 (concentration inhibiting HCVcc infectivity by 50%)): 5.55 | Selectivity index (CC50/EC50) ([1]; In vitro HCVcc assay): 14.2 | anti-Hepatitis C activity (in words) (HCV GT1B replicon; HCV replicon assay): significant anti-Hepatitis C activity | pEC50 (HCV GT1B replicon; Hepatitis C virus, GT1B, 72 h, read-out: EC50 (concentration inhibiting HCV replicon by 50%)): 4.96 | Selectivity index (CC50/EC50) (HCV GT1B replicon; In vitro HCV replicon assay): 2.51 | CC50 at 72 h [2]: 27.4 µM | CC50 at 72 h (in vitro): 50.4 µM
